Reference: ChEMBL document CHEMBL5465560, “Selectivity Literature for EUbOPEN Chemogenomic Library” (2024)

Tests used:
[1] = target: T1, Ribosomal protein S6 kinase beta-1 (Homo sapiens, UniProt P23443); assay: Selectivity interaction (KinomeScan (DiscoverX)) EUB0001079a RPS6KB1; details: at 1 µM
[2] = target: Cholecystokinin receptor type A (Homo sapiens, UniProt P32238); assay: Selectivity interaction (Cholecystokinin A receptor binding assay, human recombinant ) EUB0000877a CCKAR
[3] = target: Dual specificity protein kinase CLK1 (Homo sapiens, UniProt P49759); assay: Selectivity interaction (KinomeScan (DiscoverX)) EUB0001550a CLK1; details: at 1 µM
[4] = target: Serine/threonine-protein kinase B-raf (Homo sapiens) (UniProt P15056); assay: Selectivity interaction (Kinase panel (Invitrogen)) EUB0000639a BRAF; details: at 200 nM
[5] = target: Cyclin-dependent kinase 5/CDK5 activator 1 (Homo sapiens) (UniProt Q00535+Q15078); assay: Selectivity interaction (Kinase panel (Invitrogen)) EUB0000639a CDK5; type: protein-complex assay; details: at 200 nM
[6] = target: T2, Phosphatidylinositol 5-phosphate 4-kinase type-2 beta (Homo sapiens) (UniProt P78356); assay: Selectivity interaction (KinomeScan (DiscoverX)) EUB0000092b PIP4K2B; details: at 10 µM
T2 sequence (whole entry): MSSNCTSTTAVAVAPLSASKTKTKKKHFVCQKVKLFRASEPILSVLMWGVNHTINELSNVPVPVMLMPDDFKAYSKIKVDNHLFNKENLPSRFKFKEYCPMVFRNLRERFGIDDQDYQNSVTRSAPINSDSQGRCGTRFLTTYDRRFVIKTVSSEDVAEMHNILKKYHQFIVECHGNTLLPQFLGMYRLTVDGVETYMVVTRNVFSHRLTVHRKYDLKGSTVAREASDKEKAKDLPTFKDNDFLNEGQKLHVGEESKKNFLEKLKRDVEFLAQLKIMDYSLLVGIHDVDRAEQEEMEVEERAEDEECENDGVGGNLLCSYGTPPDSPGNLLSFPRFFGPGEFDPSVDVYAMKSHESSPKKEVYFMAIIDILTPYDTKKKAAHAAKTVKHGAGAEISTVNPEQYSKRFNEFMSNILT

[7] = target: Serine/threonine-protein kinase mTOR (Homo sapiens, UniProt P42345); details: at 10 µM
[8] = target: T1, Ribosomal protein S6 kinase beta-1; assay: Selectivity interaction (Ambit KINOMEscan and KiNATiv profiling in Jurkat cells) EUB0000090b RPS6KB1; type: cell-based; details: at 1 µM
[9] = target: T3, Serine/threonine-protein kinase PLK4 (Homo sapiens) (UniProt O00444); assay: Selectivity interaction (KinomeScan (DiscoverX)) EUB0000618a PLK4; details: at 10 µM
T3 sequence (whole entry): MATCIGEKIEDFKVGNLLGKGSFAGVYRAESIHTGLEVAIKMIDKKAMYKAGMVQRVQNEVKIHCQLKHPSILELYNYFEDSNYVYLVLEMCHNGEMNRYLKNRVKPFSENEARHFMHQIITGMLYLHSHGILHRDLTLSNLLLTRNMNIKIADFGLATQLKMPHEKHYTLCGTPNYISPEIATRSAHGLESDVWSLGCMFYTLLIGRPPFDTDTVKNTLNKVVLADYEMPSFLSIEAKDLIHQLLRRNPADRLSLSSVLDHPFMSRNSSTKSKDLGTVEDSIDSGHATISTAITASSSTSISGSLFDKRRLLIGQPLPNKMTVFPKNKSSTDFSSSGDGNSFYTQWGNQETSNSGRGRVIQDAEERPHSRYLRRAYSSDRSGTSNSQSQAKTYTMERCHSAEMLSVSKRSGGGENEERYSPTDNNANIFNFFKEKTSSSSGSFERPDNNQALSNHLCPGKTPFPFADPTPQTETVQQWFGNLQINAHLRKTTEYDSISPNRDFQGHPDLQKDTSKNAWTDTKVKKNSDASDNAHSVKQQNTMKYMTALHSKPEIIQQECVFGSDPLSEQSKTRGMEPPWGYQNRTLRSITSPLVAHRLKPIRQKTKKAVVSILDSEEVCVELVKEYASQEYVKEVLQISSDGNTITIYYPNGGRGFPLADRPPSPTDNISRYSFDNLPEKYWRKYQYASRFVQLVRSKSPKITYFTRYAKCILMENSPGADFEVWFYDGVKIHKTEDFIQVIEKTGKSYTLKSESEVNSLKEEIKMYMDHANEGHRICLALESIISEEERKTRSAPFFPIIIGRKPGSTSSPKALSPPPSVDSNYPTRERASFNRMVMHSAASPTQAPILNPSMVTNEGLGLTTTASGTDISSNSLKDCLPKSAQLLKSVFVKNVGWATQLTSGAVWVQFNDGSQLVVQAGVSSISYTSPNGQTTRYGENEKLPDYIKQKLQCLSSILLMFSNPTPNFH

[10] = target: ALK tyrosine kinase receptor (Homo sapiens, UniProt Q9UM73); assay: Selectivity interaction (KinomeScan (DiscoverX)) EUB0001619a ALK; details: at 1 µM
[11] = target: T4, 5-hydroxytryptamine receptor 2C (Homo sapiens) (UniProt P28335); assay: Selectivity interaction (Panel of kinases, GPCRs, ion channels and transporters (enzymatic assay)) EUB0000266bCl HTR2C
T4 sequence (whole entry): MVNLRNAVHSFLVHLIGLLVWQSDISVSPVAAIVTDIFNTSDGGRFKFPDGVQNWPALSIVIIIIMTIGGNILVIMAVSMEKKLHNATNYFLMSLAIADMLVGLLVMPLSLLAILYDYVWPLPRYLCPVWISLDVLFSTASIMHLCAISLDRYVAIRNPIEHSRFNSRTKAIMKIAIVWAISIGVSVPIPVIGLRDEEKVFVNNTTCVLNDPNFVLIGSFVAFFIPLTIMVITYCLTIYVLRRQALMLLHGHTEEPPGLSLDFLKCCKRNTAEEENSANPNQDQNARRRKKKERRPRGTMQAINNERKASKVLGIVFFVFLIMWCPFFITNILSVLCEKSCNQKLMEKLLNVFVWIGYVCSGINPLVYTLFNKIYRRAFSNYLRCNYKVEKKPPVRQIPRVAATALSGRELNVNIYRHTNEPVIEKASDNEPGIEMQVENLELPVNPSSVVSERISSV

[12] = target: Casein kinase I isoform gamma-2 (Homo sapiens) (UniProt P78368); assay: Selectivity interaction (ProQinase) EUB0000171b CSNK1G2
Chain of Casein kinase I isoform gamma-2 (Homo sapiens) (P78368 whole entry, looked up, canonical isoform): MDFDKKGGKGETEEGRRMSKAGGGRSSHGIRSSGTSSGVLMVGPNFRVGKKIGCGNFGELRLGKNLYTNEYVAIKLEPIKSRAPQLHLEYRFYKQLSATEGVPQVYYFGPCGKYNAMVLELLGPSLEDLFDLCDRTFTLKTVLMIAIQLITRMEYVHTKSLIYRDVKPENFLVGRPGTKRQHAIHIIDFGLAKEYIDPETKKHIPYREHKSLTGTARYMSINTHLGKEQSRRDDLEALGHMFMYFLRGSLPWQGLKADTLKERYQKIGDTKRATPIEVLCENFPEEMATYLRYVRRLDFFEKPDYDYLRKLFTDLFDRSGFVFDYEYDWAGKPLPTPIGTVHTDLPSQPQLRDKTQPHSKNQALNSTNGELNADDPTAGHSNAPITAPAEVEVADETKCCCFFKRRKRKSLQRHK

T1 sequence (P23443 whole entry, looked up): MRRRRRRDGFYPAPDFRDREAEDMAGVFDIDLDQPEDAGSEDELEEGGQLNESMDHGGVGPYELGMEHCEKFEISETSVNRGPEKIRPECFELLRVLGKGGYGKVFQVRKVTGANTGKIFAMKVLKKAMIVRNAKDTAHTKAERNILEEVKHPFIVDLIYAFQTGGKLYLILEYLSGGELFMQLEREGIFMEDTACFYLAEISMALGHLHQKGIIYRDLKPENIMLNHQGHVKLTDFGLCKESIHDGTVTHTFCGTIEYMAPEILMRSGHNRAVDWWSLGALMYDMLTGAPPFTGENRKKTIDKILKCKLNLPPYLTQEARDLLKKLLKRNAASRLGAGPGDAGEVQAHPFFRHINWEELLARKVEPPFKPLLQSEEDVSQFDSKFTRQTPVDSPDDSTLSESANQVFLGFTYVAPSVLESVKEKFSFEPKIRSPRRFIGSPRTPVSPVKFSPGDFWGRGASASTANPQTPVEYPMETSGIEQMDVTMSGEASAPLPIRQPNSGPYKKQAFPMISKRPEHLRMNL
Chain of ALK tyrosine kinase receptor (Q9UM73 19-1620 limits assumed): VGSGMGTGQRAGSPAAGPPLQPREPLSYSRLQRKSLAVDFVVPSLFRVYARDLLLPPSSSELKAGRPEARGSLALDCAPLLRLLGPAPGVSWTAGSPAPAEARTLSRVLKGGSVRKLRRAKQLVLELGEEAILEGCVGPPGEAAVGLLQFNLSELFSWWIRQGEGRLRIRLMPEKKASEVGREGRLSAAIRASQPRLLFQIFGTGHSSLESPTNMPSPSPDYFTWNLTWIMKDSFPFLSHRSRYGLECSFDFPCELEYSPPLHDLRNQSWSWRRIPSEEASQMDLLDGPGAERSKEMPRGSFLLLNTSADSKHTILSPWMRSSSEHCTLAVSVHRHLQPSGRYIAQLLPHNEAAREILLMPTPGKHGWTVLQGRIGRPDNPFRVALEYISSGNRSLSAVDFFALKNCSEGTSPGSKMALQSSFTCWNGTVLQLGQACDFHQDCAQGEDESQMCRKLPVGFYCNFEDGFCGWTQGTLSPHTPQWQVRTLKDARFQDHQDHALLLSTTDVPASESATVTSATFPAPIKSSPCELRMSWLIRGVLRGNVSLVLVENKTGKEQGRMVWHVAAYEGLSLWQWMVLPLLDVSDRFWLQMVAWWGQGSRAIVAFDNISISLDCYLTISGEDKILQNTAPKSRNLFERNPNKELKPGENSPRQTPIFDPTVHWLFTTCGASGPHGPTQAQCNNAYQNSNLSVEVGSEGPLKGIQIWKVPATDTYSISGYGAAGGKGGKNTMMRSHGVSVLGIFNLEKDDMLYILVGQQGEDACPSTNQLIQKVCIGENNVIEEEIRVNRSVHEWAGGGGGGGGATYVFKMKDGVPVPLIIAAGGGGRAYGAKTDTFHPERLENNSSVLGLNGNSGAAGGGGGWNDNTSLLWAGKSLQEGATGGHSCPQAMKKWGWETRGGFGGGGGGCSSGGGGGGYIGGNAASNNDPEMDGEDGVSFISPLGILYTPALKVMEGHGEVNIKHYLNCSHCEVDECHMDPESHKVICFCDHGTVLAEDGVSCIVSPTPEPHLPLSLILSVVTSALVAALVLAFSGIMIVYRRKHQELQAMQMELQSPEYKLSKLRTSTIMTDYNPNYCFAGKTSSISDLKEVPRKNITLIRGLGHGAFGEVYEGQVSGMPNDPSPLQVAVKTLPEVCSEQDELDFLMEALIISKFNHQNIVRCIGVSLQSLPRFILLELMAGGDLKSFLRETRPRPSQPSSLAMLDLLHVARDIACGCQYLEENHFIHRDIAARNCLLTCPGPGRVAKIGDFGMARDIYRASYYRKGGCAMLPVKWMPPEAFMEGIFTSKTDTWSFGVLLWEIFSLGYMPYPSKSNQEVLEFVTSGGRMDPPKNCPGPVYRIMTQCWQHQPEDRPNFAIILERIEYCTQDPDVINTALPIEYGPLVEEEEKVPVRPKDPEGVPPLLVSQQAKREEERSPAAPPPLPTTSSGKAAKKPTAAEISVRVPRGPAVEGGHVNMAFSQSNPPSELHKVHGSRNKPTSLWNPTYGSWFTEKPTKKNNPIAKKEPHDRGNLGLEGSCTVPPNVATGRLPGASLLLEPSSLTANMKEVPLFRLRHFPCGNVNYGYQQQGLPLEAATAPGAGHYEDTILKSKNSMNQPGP
Chain of Serine/threonine-protein kinase B-raf (Homo sapiens) (P15056 whole entry): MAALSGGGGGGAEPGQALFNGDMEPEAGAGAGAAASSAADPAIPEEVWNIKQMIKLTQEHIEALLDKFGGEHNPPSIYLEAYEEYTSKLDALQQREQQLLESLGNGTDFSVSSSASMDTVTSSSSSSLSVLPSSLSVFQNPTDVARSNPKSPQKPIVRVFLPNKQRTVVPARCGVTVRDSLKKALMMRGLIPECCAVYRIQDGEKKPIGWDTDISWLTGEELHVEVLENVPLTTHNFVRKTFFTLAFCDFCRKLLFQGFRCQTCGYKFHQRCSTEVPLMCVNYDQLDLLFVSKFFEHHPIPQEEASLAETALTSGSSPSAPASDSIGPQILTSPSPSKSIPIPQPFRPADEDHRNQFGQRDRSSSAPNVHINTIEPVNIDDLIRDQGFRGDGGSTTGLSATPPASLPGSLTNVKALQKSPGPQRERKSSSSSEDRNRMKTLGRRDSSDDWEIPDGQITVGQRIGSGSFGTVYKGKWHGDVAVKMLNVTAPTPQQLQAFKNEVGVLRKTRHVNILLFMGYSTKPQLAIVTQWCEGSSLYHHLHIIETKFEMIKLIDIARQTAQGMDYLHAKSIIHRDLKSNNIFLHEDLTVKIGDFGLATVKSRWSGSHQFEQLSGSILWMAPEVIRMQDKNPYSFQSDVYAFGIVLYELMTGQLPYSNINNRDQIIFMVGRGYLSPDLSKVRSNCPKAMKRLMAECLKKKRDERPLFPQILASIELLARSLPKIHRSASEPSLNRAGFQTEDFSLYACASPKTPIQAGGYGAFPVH
Chain of Dual specificity protein kinase CLK1 (P49759 whole entry, looked up): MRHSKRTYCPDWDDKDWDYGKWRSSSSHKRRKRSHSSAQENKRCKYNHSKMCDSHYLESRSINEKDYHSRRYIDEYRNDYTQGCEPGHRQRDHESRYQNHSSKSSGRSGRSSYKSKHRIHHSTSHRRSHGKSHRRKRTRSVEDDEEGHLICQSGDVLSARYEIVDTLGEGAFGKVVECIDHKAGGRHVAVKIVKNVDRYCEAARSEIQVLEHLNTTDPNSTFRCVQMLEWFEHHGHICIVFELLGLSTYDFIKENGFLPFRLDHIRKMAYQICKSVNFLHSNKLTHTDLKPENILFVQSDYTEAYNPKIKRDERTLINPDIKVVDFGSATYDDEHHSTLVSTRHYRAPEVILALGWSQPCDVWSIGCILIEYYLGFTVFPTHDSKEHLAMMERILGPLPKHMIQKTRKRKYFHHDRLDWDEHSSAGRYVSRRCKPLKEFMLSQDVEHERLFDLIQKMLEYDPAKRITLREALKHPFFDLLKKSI
Chain of Cyclin-dependent kinase 5/CDK5 activator 1 (Homo sapiens) (Q00535 whole entry): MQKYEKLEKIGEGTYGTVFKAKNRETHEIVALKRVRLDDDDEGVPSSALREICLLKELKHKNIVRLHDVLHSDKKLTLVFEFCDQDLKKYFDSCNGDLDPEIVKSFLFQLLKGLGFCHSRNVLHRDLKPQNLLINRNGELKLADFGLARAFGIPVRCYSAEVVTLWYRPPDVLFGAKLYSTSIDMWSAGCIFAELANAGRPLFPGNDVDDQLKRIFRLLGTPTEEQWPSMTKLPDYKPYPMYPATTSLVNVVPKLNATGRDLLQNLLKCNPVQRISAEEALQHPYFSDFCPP
Chain of Cyclin-dependent kinase 5/CDK5 activator 1 (Homo sapiens) (Q15078 99-307 partner limits assumed): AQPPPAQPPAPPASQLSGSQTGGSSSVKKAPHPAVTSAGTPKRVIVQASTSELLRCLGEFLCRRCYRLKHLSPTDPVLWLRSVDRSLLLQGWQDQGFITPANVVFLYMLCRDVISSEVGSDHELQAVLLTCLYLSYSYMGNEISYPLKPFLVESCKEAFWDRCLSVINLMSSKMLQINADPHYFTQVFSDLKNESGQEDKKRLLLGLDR
Chain of Cholecystokinin receptor type A (P32238 whole entry): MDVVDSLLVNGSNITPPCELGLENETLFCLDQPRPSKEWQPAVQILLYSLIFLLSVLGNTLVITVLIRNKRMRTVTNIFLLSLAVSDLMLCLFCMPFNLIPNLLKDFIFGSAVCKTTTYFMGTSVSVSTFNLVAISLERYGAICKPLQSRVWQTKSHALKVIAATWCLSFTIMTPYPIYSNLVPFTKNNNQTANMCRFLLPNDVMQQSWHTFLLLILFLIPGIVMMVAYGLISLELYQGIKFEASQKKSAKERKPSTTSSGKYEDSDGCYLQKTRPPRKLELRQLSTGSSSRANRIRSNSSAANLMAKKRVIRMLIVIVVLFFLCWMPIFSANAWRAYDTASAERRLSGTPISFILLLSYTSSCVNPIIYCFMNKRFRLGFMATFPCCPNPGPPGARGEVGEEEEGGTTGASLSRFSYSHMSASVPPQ

SMILES: Nc1cnc(N2CCc3cc(S(=O)(=O)Nc4c(F)cc(Cl)cc4F)cc(N4CCCC4=O)c32)nc1 [TP-020n]
- % of control [1]: 83%

SMILES: CCC(=O)N1CC[C@H](Nc2ncnc3c2CN(c2cnc(OC)c(C(F)(F)F)c2)CC3)C1 [LENIOLISIB]
- IC50 [2]: > 30 µM

SMILES: CN(C)CC#Cc1ccc2[nH]c3c(c2c1)-c1nc(N)ncc1CCC3
- % of control [3]: 30%

SMILES: CC[C@@H]1[C@H](F)C(=O)N[C@@H]1COc1nccc2cc(C(N)=O)c(OC)cc12 [ZIMLOVISERTIB]
- % of inhibition [4]: 0.492%
- % of inhibition [5]: 4.16%

SMILES: CCC(=O)N1CCN(c2ccc(-n3c(=O)ccc4cnc5ccc(-c6cnc7ccccc7c6)cc5c43)cc2C(F)(F)F)CC1
- % of control [6]: 100%
- % of control [7]: 0%

SMILES: CN(C)C/C=C/C(=O)Nc1ccc(C(=O)N2CCCC(Nc3ncc(Cl)c(-c4c[nH]c5ccccc45)n3)C2)cc1 (stereo not drawn)
- % of control [8]: 83%

SMILES: O[C@H]1CC[C@H](Nc2ncc3nc(Nc4c(F)cc(F)cc4F)n([C@H]4CCOC4)c3n2)CC1
- % of control [9]: 100%

SMILES: N#Cc1cccc(-c2c[nH]c3ncnc(N4CCOCC4)c23)c1
- % of control [10]: 100%

SMILES: CCn1c(-c2nc3cc(C(=O)N4CCCC(N)C4)ccc3n2C)cc2ccccc21 (stereo not drawn)
- pXC50 [11]: < 4.4 M

SMILES: C=CC(=O)Nc1cccc(C(=O)Nc2ccc(Nc3cc(-c4[nH]c(SC)nc4C)ccn3)cc2)c1
- % of control ([12]; at 1 µM): 22%
- % of control ([12]; at 5 µM): 5%
